From ChEMBL document CHEMBL1201862, “PubChem BioAssay data set” (2004)
Active and inactive are the calls of the source.

Assays:
[1] = molecular target: T1, Acyl-homoserine lactone acylase PvdQ (Pseudomonas aeruginosa (strain LESB58), UniProt Q9I194); experiment: PvdQ acylase enzyme activity blockers – biochemical, fluorescence, plate reader and imaging, cherry-picks, dose response (AID 493231)
T1 sequence (Q9I194 whole entry): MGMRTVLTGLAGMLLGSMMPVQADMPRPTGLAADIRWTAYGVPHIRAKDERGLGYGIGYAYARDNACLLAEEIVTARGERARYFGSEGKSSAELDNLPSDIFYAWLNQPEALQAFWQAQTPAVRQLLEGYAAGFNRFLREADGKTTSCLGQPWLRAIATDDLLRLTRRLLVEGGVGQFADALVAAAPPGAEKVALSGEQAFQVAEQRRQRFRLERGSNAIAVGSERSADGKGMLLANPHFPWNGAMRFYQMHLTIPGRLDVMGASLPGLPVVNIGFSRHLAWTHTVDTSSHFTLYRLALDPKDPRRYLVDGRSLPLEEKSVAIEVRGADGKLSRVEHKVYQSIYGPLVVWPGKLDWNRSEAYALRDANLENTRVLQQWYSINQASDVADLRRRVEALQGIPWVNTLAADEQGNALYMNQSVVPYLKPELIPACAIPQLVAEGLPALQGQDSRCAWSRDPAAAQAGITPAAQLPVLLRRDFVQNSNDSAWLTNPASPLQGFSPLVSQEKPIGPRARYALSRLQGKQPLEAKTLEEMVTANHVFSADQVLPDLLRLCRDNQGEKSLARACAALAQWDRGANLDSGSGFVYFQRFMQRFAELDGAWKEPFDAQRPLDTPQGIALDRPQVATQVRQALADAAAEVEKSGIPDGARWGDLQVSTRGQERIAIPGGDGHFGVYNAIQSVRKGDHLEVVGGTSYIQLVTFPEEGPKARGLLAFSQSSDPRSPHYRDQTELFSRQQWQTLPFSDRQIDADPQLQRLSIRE

[2] = Intein inhibitors as potential Tuberculosis drugs, a cytotoxicity screen. [Related pubchem assays (depositor defined):AID2221, AID2223, AID434968, AID435010, AID449749, AID449750, AID489010]; assay type: functional
[3] = molecular target: T2, Replicative DNA helicase DnaB (Mycobacterium tuberculosis, UniProt P9WMR3); experiment: DnaB intein splicing inhibitors, dose response, biochemical, cell-free fluorescence (AID 449749); assay type: functional
T2 sequence (P9WMR3 whole entry): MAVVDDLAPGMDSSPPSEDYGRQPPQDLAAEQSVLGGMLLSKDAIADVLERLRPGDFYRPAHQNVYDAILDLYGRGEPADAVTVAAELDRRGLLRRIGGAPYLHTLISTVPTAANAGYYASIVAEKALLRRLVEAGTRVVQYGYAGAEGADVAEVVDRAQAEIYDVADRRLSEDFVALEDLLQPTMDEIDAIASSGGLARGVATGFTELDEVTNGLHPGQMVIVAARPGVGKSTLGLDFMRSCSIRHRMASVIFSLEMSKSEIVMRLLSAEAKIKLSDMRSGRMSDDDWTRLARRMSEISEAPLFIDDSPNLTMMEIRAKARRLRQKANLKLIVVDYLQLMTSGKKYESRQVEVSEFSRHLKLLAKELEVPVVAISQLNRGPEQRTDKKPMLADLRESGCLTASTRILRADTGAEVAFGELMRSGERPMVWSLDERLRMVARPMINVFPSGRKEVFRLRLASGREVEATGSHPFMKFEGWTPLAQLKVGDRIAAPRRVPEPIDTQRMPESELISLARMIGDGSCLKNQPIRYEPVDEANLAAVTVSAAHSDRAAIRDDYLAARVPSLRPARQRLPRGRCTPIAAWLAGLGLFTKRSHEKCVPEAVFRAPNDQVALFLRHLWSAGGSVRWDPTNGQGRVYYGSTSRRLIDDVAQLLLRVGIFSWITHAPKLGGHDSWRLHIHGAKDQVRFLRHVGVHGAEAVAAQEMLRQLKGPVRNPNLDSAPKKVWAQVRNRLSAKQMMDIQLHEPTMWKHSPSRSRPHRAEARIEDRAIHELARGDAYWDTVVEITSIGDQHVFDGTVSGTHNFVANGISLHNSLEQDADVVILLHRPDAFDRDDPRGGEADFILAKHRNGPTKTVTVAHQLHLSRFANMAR

[4] = molecular target: T3, Protein RecA (Mycobacterium tuberculosis, UniProt P9WHJ3); experiment: Fluorescence Cell-Free Homogeneous Dose Retest to Identify Inhibitors of RecA-Intein Splicing Activity. [Related pubchem assays (depositor defined):AID2097, AID2223, AID489010, AID492950]; assay type: functional
T3 sequence (P9WHJ3 whole entry): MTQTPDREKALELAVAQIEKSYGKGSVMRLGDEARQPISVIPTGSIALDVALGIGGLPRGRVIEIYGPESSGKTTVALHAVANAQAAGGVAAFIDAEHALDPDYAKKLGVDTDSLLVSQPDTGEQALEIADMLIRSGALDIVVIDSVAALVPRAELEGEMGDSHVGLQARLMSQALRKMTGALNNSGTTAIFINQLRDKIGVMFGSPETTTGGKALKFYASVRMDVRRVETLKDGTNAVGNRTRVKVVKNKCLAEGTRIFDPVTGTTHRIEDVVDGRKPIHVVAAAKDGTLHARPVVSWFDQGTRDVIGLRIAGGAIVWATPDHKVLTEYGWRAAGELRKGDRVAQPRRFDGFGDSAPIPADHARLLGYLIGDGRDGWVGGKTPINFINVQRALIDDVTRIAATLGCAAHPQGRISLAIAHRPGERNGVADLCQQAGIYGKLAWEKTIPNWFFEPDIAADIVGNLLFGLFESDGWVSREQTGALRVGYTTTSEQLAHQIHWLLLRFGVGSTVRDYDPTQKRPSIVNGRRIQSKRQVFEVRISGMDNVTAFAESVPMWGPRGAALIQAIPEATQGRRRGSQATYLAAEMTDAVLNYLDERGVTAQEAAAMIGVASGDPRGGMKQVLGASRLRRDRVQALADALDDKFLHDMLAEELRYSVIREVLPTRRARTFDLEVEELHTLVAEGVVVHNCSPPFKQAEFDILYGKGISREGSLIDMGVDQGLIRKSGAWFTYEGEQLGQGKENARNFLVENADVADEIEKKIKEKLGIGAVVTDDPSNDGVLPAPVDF

[5] = molecular target: T4, Fatty acid synthase (Homo sapiens, UniProt P49327); experiment: inhibition of human FAS-TE enzyme activity – biochemical, endpoint fluorescence intensity, uHTS hits, dose response (AID 624327); assay type: functional;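 note: fluorescence from hydrolysis of an O-methyl fluorescein acyl ester substrate by the enzyme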
[6] = molecular target: T4, Fatty acid synthase; experiment: inhibition of human FAS-TE enzyme activity – biochemical, kinetic fluorescence intensity, dose response (AID 624326); assay type: functional;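 note: rate of fluorescence rise from hydrolysis of a fluorogenic O-methyl fluorescein ester substrate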
[7] = molecular target: T5, Estrogen receptor (Homo sapiens, UniProt P03372);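 note: potency for inhibiting coactivator peptide recruitment to the receptor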
T5 sequence (P03372 whole entry): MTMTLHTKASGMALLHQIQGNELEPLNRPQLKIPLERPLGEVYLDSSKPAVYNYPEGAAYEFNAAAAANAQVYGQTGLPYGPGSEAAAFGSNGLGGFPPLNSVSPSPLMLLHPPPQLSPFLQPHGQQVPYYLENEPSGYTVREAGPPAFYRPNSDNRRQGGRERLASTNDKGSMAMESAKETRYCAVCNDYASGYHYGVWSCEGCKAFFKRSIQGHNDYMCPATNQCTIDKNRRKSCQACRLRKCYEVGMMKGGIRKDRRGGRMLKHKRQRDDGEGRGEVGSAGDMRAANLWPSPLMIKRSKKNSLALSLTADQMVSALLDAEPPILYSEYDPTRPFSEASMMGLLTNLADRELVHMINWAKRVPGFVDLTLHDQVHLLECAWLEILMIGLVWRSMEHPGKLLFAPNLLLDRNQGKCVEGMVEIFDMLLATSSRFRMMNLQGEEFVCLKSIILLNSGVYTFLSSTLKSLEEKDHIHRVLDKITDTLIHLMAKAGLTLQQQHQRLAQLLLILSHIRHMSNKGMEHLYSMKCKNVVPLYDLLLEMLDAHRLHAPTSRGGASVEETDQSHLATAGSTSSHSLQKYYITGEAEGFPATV

[8] = molecular target: T6, Estrogen receptor beta (Homo sapiens, UniProt Q92731);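 note: recombinant ER-beta bound to coactivator SRC1 peptide in presence of estradiol agonist; inhibitors block coactivator peptide binding and lower the FRET signal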
[9] = molecular target: T6, Estrogen receptor beta; experiment: blockers of SRC-3 recruitment to ERβ – biochemical, ELISA, streptavidin-HRP readout, orthogonal assay, confirmation (AID 1060)
[10] = Luminescence-based counterscreen assay for KLF5 inhibitors: dose response cell-based high throughput screening assay to identify cytotoxic compounds using the IEC-6 intestinal epithelial cell line. [Related pubchem assays: 1700 (Primary screen.), 1834 (Confirmation screen.), 1858 (Summary AID.), 1905 (Counterscreen.)]; assay type: functional
[11] = molecular target: T7, Heat shock factor protein 1 (Mus musculus, UniProt P38532); experiment: enhancement of HSF1-driven luciferase signal – cell-based, NIH3T3, luminescence, dose retest, confirmation (AID 435004); assay type: functional;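 note: stress induced by proteasome inhibitor MG132 added 30 min after compound; luciferase reporter driven by HSF1 response element in NIH3T3 cells; actives raise luminescence as potentiators of the MG132 stress response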
T7 sequence (P38532 whole entry): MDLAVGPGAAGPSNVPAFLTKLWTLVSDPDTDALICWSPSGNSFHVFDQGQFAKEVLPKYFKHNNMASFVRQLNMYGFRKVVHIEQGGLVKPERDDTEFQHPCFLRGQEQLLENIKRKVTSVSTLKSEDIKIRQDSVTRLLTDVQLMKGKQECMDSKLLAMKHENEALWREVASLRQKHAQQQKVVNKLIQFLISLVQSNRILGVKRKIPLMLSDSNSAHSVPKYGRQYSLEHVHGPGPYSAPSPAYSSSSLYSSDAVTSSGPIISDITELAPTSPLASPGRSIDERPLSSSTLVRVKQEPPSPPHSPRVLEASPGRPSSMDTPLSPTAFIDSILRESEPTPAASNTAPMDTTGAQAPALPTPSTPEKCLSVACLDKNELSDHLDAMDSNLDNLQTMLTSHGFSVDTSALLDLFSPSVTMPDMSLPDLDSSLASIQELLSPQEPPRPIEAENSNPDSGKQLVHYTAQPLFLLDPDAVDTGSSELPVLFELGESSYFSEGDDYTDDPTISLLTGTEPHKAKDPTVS

[12] = molecular target: T8, Calpain-2 catalytic subunit (Sus scrofa, UniProt P43367); experiment: m-calpain protease blockers, concentration series – biochemical, fluorogenic peptide substrate, dose response (AID 1420); assay type: functional
T8 sequence (P43367 whole entry): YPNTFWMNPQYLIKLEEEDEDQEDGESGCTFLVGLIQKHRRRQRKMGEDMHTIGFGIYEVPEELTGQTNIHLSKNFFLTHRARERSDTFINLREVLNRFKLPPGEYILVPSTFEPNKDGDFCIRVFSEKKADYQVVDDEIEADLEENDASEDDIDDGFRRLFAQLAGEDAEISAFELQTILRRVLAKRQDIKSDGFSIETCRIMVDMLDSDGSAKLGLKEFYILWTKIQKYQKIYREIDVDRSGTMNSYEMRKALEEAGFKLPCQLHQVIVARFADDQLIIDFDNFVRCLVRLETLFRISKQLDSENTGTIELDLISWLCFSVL

[13] = tested on: INS1; experiment: INS-1E survival protection against cytokine death – cell-based, luminescence, retest, dose response (AID 449756); assay type: functional; details: Rattus norvegicus;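 note: cell death triggered by IL-1 beta plus TNF-alpha plus IFN-gamma mixture; protective hits raise ATP signal compared with cytokine alone wells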
[14] = molecular target: T9, Carboxy-terminal domain RNA polymerase II polypeptide A small phosphatase 1 (Homo sapiens, UniProt Q9GZU7); experiment: CTDSP1 inhibitors, concentration-response, biochemical, absorbance readout, ultra-high-throughput screen actives (AID 540297); assay type: functional
T9 sequence (Q9GZU7 whole entry): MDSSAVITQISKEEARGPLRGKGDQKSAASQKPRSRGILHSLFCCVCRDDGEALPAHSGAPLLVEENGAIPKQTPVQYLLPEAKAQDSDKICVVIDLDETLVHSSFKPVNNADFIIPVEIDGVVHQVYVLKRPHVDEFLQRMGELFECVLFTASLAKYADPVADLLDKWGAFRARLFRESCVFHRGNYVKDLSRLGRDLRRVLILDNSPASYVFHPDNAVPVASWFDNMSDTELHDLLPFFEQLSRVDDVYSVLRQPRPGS

[15] = molecular target: T10, Protein Tat (Human immunodeficiency virus type 1 group M subtype B (isolate HXB2)(HIV-1), UniProt P04608); assay type: functional;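 note: tat binding to TAR RNA read out by fluorescence polarization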
T10 sequence (P04608 whole entry): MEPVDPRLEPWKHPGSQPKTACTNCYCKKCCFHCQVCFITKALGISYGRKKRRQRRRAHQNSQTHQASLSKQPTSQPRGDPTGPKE
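Throughout, for CC50: cells exposed to compound for 72 hours before luminescence readout.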

T6 sequence (Q92731 whole entry): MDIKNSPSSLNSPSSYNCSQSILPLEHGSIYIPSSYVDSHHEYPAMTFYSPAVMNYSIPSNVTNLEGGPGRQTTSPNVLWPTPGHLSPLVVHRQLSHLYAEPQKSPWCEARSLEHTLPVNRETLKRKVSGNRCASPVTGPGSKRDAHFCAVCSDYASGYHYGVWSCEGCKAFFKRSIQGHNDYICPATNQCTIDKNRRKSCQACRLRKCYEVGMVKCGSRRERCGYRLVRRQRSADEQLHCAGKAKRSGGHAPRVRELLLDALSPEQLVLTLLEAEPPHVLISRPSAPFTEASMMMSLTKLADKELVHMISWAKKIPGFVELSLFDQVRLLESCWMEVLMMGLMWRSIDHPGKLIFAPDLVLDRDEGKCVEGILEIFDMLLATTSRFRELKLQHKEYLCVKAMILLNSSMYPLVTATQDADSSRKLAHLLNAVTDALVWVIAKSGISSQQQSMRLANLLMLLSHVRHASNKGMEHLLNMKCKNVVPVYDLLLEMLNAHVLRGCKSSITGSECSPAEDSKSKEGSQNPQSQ
T4 sequence (P49327 whole entry): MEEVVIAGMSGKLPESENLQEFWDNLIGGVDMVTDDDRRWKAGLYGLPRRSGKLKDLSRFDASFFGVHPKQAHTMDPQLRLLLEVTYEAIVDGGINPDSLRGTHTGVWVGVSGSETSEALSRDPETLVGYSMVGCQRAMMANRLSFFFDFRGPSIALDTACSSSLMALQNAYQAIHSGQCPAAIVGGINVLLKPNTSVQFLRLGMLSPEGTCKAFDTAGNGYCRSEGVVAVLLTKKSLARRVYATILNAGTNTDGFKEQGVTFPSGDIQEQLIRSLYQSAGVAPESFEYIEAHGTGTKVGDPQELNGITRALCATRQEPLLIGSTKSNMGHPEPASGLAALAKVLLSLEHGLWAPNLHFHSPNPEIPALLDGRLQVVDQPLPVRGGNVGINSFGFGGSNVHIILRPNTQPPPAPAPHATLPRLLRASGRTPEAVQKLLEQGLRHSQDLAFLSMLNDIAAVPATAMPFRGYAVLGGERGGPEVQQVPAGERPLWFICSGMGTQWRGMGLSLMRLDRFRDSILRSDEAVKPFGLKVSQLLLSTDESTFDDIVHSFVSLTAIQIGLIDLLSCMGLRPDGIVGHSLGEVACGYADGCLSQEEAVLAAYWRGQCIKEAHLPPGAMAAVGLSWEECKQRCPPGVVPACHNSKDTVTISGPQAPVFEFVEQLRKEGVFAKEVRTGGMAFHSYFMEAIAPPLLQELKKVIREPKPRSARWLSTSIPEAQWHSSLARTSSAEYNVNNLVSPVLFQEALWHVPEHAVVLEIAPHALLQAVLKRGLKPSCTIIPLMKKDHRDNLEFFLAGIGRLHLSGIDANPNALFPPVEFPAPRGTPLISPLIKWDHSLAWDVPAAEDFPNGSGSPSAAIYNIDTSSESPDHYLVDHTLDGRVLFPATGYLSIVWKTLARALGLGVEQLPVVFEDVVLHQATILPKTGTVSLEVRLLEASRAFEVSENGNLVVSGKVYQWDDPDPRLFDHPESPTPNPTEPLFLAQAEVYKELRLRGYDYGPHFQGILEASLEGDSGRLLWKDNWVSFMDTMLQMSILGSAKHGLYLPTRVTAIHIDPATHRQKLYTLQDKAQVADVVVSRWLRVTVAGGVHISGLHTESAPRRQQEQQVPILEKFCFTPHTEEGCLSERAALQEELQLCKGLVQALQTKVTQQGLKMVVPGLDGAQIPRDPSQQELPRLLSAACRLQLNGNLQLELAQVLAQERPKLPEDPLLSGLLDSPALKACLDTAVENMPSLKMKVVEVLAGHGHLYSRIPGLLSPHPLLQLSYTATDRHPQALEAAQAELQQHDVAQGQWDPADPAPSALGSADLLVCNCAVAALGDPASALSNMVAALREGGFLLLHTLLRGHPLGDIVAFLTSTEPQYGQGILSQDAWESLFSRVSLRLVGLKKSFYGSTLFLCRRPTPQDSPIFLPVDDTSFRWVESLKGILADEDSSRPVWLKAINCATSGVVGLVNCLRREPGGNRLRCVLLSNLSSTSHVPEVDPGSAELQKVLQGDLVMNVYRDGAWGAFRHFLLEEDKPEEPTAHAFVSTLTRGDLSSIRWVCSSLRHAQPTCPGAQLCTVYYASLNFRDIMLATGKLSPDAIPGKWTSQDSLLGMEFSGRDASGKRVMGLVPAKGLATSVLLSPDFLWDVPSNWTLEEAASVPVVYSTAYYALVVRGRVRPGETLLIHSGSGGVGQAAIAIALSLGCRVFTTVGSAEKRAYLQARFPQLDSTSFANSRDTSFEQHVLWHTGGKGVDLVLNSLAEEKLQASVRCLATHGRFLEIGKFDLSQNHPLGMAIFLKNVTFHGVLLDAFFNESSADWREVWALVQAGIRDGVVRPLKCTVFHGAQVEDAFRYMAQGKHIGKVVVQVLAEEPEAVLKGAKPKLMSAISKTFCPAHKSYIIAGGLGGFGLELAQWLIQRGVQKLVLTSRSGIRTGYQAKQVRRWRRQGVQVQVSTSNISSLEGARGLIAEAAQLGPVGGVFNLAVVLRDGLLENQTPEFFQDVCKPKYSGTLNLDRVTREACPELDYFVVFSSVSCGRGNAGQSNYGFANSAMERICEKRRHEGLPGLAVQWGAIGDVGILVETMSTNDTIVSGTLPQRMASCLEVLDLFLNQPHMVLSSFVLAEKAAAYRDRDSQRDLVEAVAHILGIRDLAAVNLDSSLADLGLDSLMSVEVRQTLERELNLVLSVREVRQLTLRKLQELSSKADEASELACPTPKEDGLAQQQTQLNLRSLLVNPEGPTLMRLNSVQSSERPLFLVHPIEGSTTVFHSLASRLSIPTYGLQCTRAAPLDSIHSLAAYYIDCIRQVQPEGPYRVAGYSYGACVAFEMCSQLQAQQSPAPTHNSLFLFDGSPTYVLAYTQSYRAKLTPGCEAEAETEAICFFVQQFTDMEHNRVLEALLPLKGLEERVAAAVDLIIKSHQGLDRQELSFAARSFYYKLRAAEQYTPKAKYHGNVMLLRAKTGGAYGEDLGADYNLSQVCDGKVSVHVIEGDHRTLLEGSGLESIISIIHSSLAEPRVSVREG

Cn1cccc1C(C#N)c1ccccc1C#N (centres undefined)
AC50 [1]: 7.71 µM (active)

COC(=O)c1ccc(OC(=O)c2cccs2)cc1
AC50 [1]: 7.15 µM (active)

CC(CCc1ccccc1)NC(=O)COC(=O)c1cc(NS(=O)(=O)c2ccc(Cl)c([N+](=O)[O-])c2)ccc1O (centres undefined)
CC50 [2]: 32.9 µM (active) | AC50 [3]: 3.63 µM (active) | EC50 [4]: 2.95 µM (active) | IC50 [5]: 11.1 µM (active) | IC50 [6]: 6.97 µM (active)

O=S(=O)(NCc1csc(-c2cccnc2)n1)c1ccc(Cl)s1
IC50 [7]: 13.6 µM (active) | IC50 [8]: 11.8 µM (active) | IC50 [9]: 99.4 µM (not active)

CCC(=O)c1ccc(OC(=O)c2cccs2)cc1
AC50 [1]: > 100 µM (inactive)

COc1ccc(N2CCN(C(=O)c3ccc(Br)o3)CC2)cc1
AC50 [1]: 7.33 µM (active)

CN(C)c1ccc(/C=N/Nc2cccc(C(=O)O)c2)cc1
IC50 [10]: > 39.8 µM (not active)

Cc1[nH]n(-c2ccccc2)c(=O)c1C(C[N+](=O)[O-])c1ccc(F)cc1 (centres undefined)
EC50 [11]: > 260 µM (inactive) | CC50 [2]: > 40 µM (active) | AC50 [3]: 0.729 µM (active) | EC50 [4]: 4.2 µM (active)

CC(=N)/C(C#N)=C(/O)CSc1nnc(COc2ccccc2Cl)o1
IC50 [7]: 37.2 µM (not active) | IC50 [8]: 8.99 µM (active) | IC50 [9]: 5.64 µM (not active) | IC50 [12]: < 0.4 µM (not active)

O=C(Nc1cccnc1)c1cccs1
IC50 [10]: 38.4 µM (not active) | IC50 [12]: > 50 µM (not active) | AC50 [13]: 6.6 µM (active)

CCOC(=O)C1=C(O)/C(=C\c2ccc(CNC(=O)C(=O)Nc3ccccc3)o2)N=C1C
IC50 [7]: 5.73 µM (active) | IC50 [8]: < 1.56 µM (active) | IC50 [9]: 1.95 µM (not active) | IC50 [14]: 8.55 µM (active) | IC50 [15]: 5.9 µM (inconclusive)
